These results are taken from patent publication US8329726B2, “Inhibitors of VEGF receptor and HGF receptor signaling” (MethylGene Inc., priority 2005, dated 2012).

The test system of assay [1] is Colo265. The assay is described as follows: In vivo solid tumor disease model, Colo265. To be noted: Colo265, 30 mg/kg i.p. once daily, 14 days. Details: species or system female athymic CD1 mice.
Assay [2] concerns the target T1, recombinant human c-Met/HGF receptor (Homo sapiens, UniProt P08581).
T1 construct: His tag (pBlueBacHis2A vector); made in house; host or cells: Hi-5 cells (Trichoplusia ni), baculovirus
Nature of the assay: In vitro receptor tyrosine kinase assay (DELFIA), c-Met/HGF receptor. The format is biochemical. To be noted: recombinant c-Met IC, 10 uM ATP, DELFIA; read-out: C-Met (IC50). As for the experimental part: Cell pellets were frozen at −80° C. until purification was performed.
The coated plates were washed and stored at 4° C. […] After incubation, the kinase reactions were quenched with EDTA and the plates were washed.

Assay [3] deals with T2, VEGF receptor KDR (Homo sapiens, UniProt P35968).
T2 construct: made in house; host or cells: Sf9 cells (Spodoptera frugiperda), baculovirus
Nature of the assay: In vitro receptor tyrosine kinase assay (DELFIA), VEGF receptor KDR. The format is biochemical. The following applies: GST-VEGFR2 806-1356, 0.6 uM ATP, DELFIA; read-out: VEGFR (IC50).

For assay [4], the target named is T3, TPR-MET fusion protein (Homo sapiens, UniProt P08581).
T3 construct: the MET gene on chromosome 7 encoding for its cytoplasmic region catalytic domain; host or cells: MNNGHOS cells; the other entry of the earlier key: TPR (P12270, Nucleoprotein TPR)
Nature of the assay: C-Met phosphorylation cell-based assay (MNNGHOS cells). To be noted: MNNGHOS cells, 3 hours treatment, immunoblot; read-out: Y1230-34-35 TPR-MET phosphorylation (IC50). From the text:
C-Met Phosphorylation Cell-Based Assay
Signal was quantitated by densitometry on Alpha-Imager.
In general terms: A western blot detects proteins with antibodies after separation by electrophoresis.

The subject of assay [5] is U87MG. The assay is described as follows: In vivo solid tumor disease model, U87MG. Details: species or system female athymic CD1 mice. To be noted: 75 mg/kg p.o. once daily, 14 days. An excerpt:
In Vivo Solid Tumor Disease Model
This test measures the capacity of compounds to inhibit solid tumor growth.
Tumor xenografts are established in the flank of female athymic CD1 mice (Charles River Inc.), by subcutaneous injection of 1×10^6 U87, A431 or SKLMS cells/mouse. Once established, tumors are then serially passaged s.c. in nude mice hosts. Tumor fragments from these host animals are used in subsequent compound evaluation experiments. For compound evaluation experiments female nude mice weighing approximately 20 g are implanted s.c. by surgical implantation with tumor fragments of ˜30 mg from donor tumors. When the tumors are approximately 100 mm^3 in size (˜7-10 days following implantation), the animals are randomized and separated into treatment and control groups. Each group contains 6-8 tumor-bearing mice, each of which is ear-tagged and followed individually throughout the experiment.
Mice are weighed and tumor measurements are taken by calipers three times weekly, starting on Day 1. These tumor measurements are converted to tumor volume by the well-known formula […]. The experiment is terminated when the control tumors reach a size of approximately 1500 mm^3. […] In addition to tumor volumes, body weight of animals is monitored twice weekly for up to 3 weeks. […]

Assay [6] concerns A549. The assay is described as follows: In vivo solid tumor disease model, A549. The arrangement: species or system female athymic CD1 mice. The following applies: 14 days.
Assay [7] concerns MV4-11. The assay is described as follows: In vivo solid tumor disease model, MV4-11. Details: species or system female athymic CD1 mice. The following applies: MV4-11, 20 mg/kg p.o. once daily, 14 days.

T2 sequence (P35968 806-1356): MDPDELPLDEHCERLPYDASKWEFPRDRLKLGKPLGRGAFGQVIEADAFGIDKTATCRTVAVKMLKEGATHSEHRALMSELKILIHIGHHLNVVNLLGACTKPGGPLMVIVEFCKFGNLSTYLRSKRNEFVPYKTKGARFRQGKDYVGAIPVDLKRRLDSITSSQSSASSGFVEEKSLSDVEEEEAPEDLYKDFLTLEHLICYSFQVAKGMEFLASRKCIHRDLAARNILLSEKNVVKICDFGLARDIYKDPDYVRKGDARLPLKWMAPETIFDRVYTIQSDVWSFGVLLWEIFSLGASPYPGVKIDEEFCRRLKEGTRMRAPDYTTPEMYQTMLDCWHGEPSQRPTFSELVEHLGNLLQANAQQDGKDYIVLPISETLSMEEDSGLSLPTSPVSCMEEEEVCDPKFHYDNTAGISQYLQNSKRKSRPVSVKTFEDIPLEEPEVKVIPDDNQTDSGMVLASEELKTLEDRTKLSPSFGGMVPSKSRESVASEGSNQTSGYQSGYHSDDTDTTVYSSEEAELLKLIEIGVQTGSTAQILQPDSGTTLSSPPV
T3 sequence (P08581 with tags, fused parts or gaps): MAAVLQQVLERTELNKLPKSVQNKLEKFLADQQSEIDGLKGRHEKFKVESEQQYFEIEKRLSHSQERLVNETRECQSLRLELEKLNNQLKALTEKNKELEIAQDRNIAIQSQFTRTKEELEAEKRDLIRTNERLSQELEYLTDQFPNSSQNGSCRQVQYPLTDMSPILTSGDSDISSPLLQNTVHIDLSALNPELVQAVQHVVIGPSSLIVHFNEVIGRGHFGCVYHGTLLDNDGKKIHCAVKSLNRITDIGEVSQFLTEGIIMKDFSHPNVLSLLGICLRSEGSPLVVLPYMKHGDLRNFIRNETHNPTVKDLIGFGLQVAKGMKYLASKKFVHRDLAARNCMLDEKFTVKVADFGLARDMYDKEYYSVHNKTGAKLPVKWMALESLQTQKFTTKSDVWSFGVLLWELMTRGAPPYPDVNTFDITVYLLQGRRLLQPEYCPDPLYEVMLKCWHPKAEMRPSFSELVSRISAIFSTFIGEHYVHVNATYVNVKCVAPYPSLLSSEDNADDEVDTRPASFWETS
T1 sequence (P08581 1078-1337): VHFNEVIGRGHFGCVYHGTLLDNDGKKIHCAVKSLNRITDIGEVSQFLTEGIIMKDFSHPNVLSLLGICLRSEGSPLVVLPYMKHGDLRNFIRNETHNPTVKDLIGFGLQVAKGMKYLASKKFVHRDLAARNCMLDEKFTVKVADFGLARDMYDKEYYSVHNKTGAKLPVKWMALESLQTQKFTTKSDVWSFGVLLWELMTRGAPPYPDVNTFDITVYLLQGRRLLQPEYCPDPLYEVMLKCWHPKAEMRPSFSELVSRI

Consider `CN(C(=O)CC(=O)Nc1ccc(Oc2ccnc3cc(-c4cn(CCN5CCCC5)cn4)sc23)c(F)c1)c1ccccc1`, for which, in assay [1], the “Tumor Growth Inhibition (%)” value was “b (% TGI in the range of 50-74)”. On to `Cn1ccnc1-c1cc2nccc(Oc3ccc(NC(=O)CC(=O)Nc4ccccc4F)cc3F)c2s1` [Compound 30a, N^1-(3-Fluoro-4-(2-(1-methyl-1H-imidazol-2-yl)thieno[3,2-b]pyridin-7-yloxy)phenyl)-N^3-(2-fluorophenyl)malonamide], for which the IC50 (usually the concentration at which inhibition is half-maximal) was determined as 0.031 µM in assay [2], 0.005 µM in assay [3] and 0.028 µM in assay [4]. As to `CN(C(=O)CC(=O)Nc1ccc(Oc2ccnc3cc(-c4nccn4C)sc23)c(F)c1)c1ccccc1` [Compound 32, N^1-(3-Fluoro-4-(2-(1-methyl-1H-imidazol-2-yl)thieno[3,2-b]pyridin-7-yloxy)phenyl)-N^3-methyl-N^3-phenylmalonamide], the half-maximal inhibitory concentration (IC50) was 0.109 µM in assay [2], 0.005 µM in assay [3] and above 5 µM in assay [4].

`Cn1ccnc1-c1cc2nccc(Oc3ccc(NC(=O)CC(=O)Nc4ccncc4)cc3F)c2s1` [Compound 34, N^1-{3-Fluoro-4-[2-(1-methyl-1H-imidazol-2-yl)-thieno[3,2-b]pyridin-7-yloxy]-phenyl}-N^3-pyridin-4-yl-malonamide]: the IC50 in assay [2] is 0.365 µM; in assay [3], 0.019 µM; in assay [4], above 5 µM. On to `Cn1ccnc1-c1cc2nccc(Oc3ccc(NC(=O)CC(=O)Nc4cccnc4)cc3F)c2s1` [Compound 40, N^1-(3-Fluoro-4-(2-(1-methyl-1H-imidazol-2-yl)thieno[3,2-b]pyridin-7-yloxy)phenyl)-N^3-(pyridine-3-yl)malonamide], for which the IC50 is 0.268 µM in assay [2], 0.013 µM in assay [3] and around 0.5 µM in assay [4]. As for `CCn1cnc(-c2cc3nccc(Oc4ccc(NC(=O)CC(=O)Nc5ccccc5)cc4F)c3s2)c1` [drawing 460], the “Tumor Growth Inhibition (%)” value in assay [5] is listed as “b (% TGI in the range of 50-74)”. With `CCn1cnc(-c2cc3nccc(Oc4ccc(NC(=O)CC(=O)Nc5ccccc5F)cc4F)c3s2)c1` [drawing 461], the “Tumor Growth Inhibition (%)” value in assay [5] was “b (% TGI in the range of 50-74)”. On to `CN(C)Cc1cccc(-c2cc3nccc(Oc4ccc(NC(=O)CC(=O)Nc5ccccc5F)cc4F)c3s2)c1` [drawing 462], for which the “Tumor Growth Inhibition (%)” value in assay [6] (A549, 20 mg/kg p.o. once daily) is reported as “b (% TGI in the range of 50-74)”. Turning to `CCn1cnc(-c2cc3nccc(Oc4ccc(NC(=O)C5(C(=O)Nc6ccccc6)CC5)cc4F)c3s2)c1` [drawing 463], the “Tumor Growth Inhibition (%)” value in assay [6] (A549, 40 mg/kg p.o. once daily) is “b (% TGI in the range of 50-74)”. Take `CN1CCN(CCN(C)Cc2ccc(-c3cc4nccc(Oc5ccc(NC(=O)CC(=O)Nc6ccccc6)cc5F)c4s3)cc2)CC1` [drawing 464]: the “Tumor Growth Inhibition (%)” value in assay [7] is recorded as “b (% TGI in the range of 50-74)”.
